From ChEMBL document CHEMBL1201862, “PubChem BioAssay data set” (2004) come the findings set out here.

Structures are written as SMILES.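 Growth conditions: 96-well plates. Treatment: test compound, 48 hours, 5 concentrations. Analysis: linear interpolation between bracketing concentrations; unreached endpoints set to highest concentration. At the GI50, growth is halved.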 Calls of active or inactive are those of the source. No stated cut-off is given here; in the data, active = GI50 up to about 1.1 µM and inactive = higher.

Some test systems named below: 786-0; NCI-H460; SW-620; PC-3; COLO 205; M14; SK-MEL-2; SNB-75; A498; UO-31; HCT-116; RPMI-8226; OVCAR-4; SK-MEL-5; U-251; SF-539; A549; OVCAR-5; SR; HCT-15.
Common to all, as to experiment: NCI tumour cell line growth inhibition, 48 h

Regarding `C[C@@H]1OCC(O)C([C@H]2OC(c3ccccc3)=N[C@H]2CO)O1` (stereo not given in full), the GI50 with 786-0, with NCI-H460, with SW-620, in the assay on PC-3, with COLO 205 and in the assay with M14 was > 100 µM (inactive) each time. Moreover, the GI50 was > 100 µM (inactive) in the assay on SK-MEL-2; 72.1 µM (inactive) in the assay on SNB-75; > 100 µM (inactive) in the assay with A498; > 100 µM (inactive) in the assay with UO-31; > 100 µM (inactive) in the assay with HCT-116; > 100 µM (inactive) in the assay on RPMI-8226. The GI50 with OVCAR-4, in the assay on SK-MEL-5, in the assay on U-251, in the assay on SF-539, in the assay on A549 and with OVCAR-5 was > 100 µM (inactive) throughout. Also, the GI50 in the assay on SR was > 100 µM (inactive); with HCT-15, > 100 µM.
As for `COc1cc2c(c3oc4c(O)cccc4c(=O)c13)CC(C(C)(O)CCl)O2` (stereo not given), the GI50 in the assay with 786-0 is 0.889 µM (active); with NCI-H460, 2.64 µM (inactive); with SW-620 it was 0.0277 µM (active); with PC-3, 1.22 µM (inactive); in the assay with COLO 205, 0.373 µM (active); in the assay with M14, 0.256 µM (active). Moreover, the GI50 in the assay on SK-MEL-2 is 1.36 µM (inactive); in the assay with SNB-75, 3.35 µM (inactive); with A498 it was 15.1 µM (inactive); with UO-31 it was 0.807 µM (active); in the assay with HCT-116 it was 0.157 µM (active); in the assay on RPMI-8226, 0.0661 µM (active). Besides, the GI50 was 1.45 µM (inactive) with OVCAR-4; 0.279 µM (active) in the assay on SK-MEL-5; 1.98 µM (inactive) with U-251; 0.443 µM (active) with SF-539; 2.54 µM (inactive) in the assay with A549; 6.34 µM (inactive) in the assay on OVCAR-5. In addition, the GI50 in the assay with SR was < 0.0338 µM (active); in the assay with HCT-15, 1.04 µM.
Consider `CO[C@@H]1C[C@H](OC(N)=O)[C@@H]2C=C[C@@H]3/C=C(C)/C=C/[C@@H](C)[C@H]([C@H](C)[C@H](O)[C@@H](C)NC(C)=O)OC(=O)/C=C/C=C(C)\C=C\[C@]3(C)[C@@H]2C1`, for which the GI50 in the assay with 786-0, in the assay on NCI-H460, with SW-620, in the assay with PC-3, in the assay on COLO 205 and with M14 was < 0.01 µM (active) each time. The GI50 with SK-MEL-2 was 1.28 µM (inactive); in the assay with SNB-75, < 0.01 µM (active); with A498, < 0.01 µM (active); with UO-31, < 0.01 µM (active); with HCT-116 it was < 0.01 µM (active); with RPMI-8226, < 0.01 µM (active). Further, the GI50 in the assay with OVCAR-4 was < 0.01 µM (active); with SK-MEL-5, < 0.01 µM (active); with U-251 it was < 0.01 µM (active); in the assay with SF-539 it was < 0.01 µM (active); in the assay on A549 it was < 0.01 µM (active); in the assay on OVCAR-5, 1.42 µM (inactive). The GI50 with SR was < 0.01 µM (active); with HCT-15 it was < 0.01 µM.
On to `CCOC(=O)CCC1(C(=O)O[C@@H]2C[C@H](C)CC[C@H]2C(C)C)CCCCC1=O` (stereo not given in full), for which the GI50 in the assay on 786-0 was > 100 µM (inactive); in the assay on NCI-H460, 36.6 µM (inactive); in the assay with SW-620 it was > 100 µM (inactive); in the assay on PC-3 it was 39.3 µM (inactive); in the assay with COLO 205 it was 65 µM (inactive); with M14, 56.5 µM (inactive). Moreover, the GI50 is > 100 µM (inactive) with SK-MEL-2; 42 µM (inactive) with SNB-75; > 100 µM (inactive) in the assay on A498; > 100 µM (inactive) with UO-31; 41.7 µM (inactive) in the assay with HCT-116; 28.7 µM (inactive) with RPMI-8226. Besides, the GI50 in the assay on OVCAR-4 is 61.2 µM (inactive); in the assay with SK-MEL-5 it was 31.1 µM (inactive); in the assay on U-251, 63.2 µM (inactive); in the assay with SF-539 it was > 100 µM (inactive); in the assay on A549 it was 55.3 µM (inactive); with OVCAR-5 it was > 100 µM (inactive). Moreover, the GI50 with SR was 41.2 µM (inactive); in the assay on HCT-15 it was 41.7 µM.
In the case of `O=C1CCCC/C1=C(\Br)I`, the GI50 is 19.6 µM (inactive) in the assay on 786-0; 15.3 µM (inactive) in the assay on NCI-H460; 3.39 µM (inactive) in the assay on SW-620; 17.3 µM (inactive) with PC-3; 15.1 µM (inactive) in the assay on COLO 205; 6.78 µM (inactive) in the assay on M14. Moreover, the GI50 was 22.3 µM (inactive) with SK-MEL-2; 16.9 µM (inactive) in the assay on SNB-75; 19.4 µM (inactive) in the assay on A498; 17.7 µM (inactive) with UO-31; 12 µM (inactive) with HCT-116; 2.86 µM (inactive) with RPMI-8226. For the same molecule, the GI50 was 15.4 µM (inactive) with OVCAR-4; 17.9 µM (inactive) with SK-MEL-5; 18 µM (inactive) in the assay on U-251; 18.8 µM (inactive) in the assay on SF-539; 23.3 µM (inactive) in the assay on A549; 18.8 µM (inactive) in the assay with OVCAR-5. Moreover, the figures for the GI50 with SR and in the assay on HCT-15 were 2.67 µM (inactive) and 3.4 µM, respectively.
In the case of `O=C1C(N2CCN(c3ccccn3)CC2)=C(Cl)C(=O)c2ncccc21`, the GI50 is 1.78 µM (inactive) with 786-0; > 10 µM (inactive) with NCI-H460; 1.23 µM (inactive) in the assay on SW-620; > 9.16 µM (inactive) with PC-3; 1.96 µM (inactive) in the assay on COLO 205; 1.98 µM (inactive) in the assay with M14. Besides, the GI50 with SK-MEL-2 is 2.31 µM (inactive); with SNB-75 it was > 10 µM (inactive); in the assay on A498 it was 5.07 µM (inactive); in the assay with UO-31, 3.27 µM (inactive); with HCT-116, 1.71 µM (inactive); in the assay with RPMI-8226, 0.353 µM (active). Also, the GI50 in the assay on OVCAR-4 was 0.637 µM (active); in the assay with SK-MEL-5, 1.79 µM (inactive); in the assay on U-251 it was > 10 µM (inactive); in the assay with SF-539, > 10 µM (inactive); in the assay on A549 it was > 10 µM (inactive); with OVCAR-5 it was > 10 µM (inactive). Besides, the GI50 with SR was 2.28 µM (inactive); in the assay on HCT-15 it was 1.95 µM.
For `O=C1CSC(c2ccccc2[N+](=O)[O-])N1c1ccc(-c2ccc(-n3c(-c4ccccc4)nc4ccccc4c3=O)cc2)cc1` (stereo not given), the GI50 was > 100 µM (inactive) in the assay with 786-0; > 100 µM (inactive) in the assay with NCI-H460; 36.4 µM (inactive) with SW-620; > 100 µM (inactive) in the assay with PC-3; > 100 µM (inactive) in the assay with COLO 205; > 100 µM (inactive) in the assay on M14. Moreover, the GI50 is > 100 µM (inactive) in the assay with SK-MEL-2; 18.4 µM (inactive) in the assay with SNB-75; > 100 µM (inactive) with A498; 29.9 µM (inactive) in the assay with UO-31; 82.6 µM (inactive) in the assay on HCT-116; 90.2 µM (inactive) in the assay with RPMI-8226. Also, the GI50 in the assay with OVCAR-4 was 75.5 µM (inactive); in the assay with SK-MEL-5, 42 µM (inactive); in the assay on U-251, 42.6 µM (inactive); with SF-539 it was 58.6 µM (inactive); with A549 it was > 100 µM (inactive); in the assay with OVCAR-5, 71.3 µM (inactive). In addition, the GI50 was 44.6 µM (inactive) with SR and 74.3 µM with HCT-15.
In the case of `CC[P+]1(c2ccccc2)[C@@H](C)CC[C@@H]1C`, the GI50 with 786-0 was > 100 µM (inactive); in the assay on NCI-H460, > 100 µM (inactive); with SW-620 it was > 100 µM (inactive); in the assay with PC-3, 61.9 µM (inactive); in the assay on COLO 205, 85.1 µM (inactive); in the assay on M14 it was > 100 µM (inactive). The GI50 with SK-MEL-2, with SNB-75, in the assay with A498, in the assay on UO-31, in the assay on HCT-116 and with RPMI-8226 was > 100 µM (inactive) in each case. The GI50 in the assay on OVCAR-4 was > 100 µM (inactive); in the assay with SK-MEL-5 it was 65.2 µM (inactive); with U-251 it was 40.5 µM (inactive); in the assay with SF-539, > 100 µM (inactive); in the assay with A549, > 100 µM (inactive); with OVCAR-5, > 100 µM (inactive). The GI50 in the assay with SR is > 100 µM (inactive); in the assay on HCT-15, > 100 µM.
For the molecule `COc1ccc(OC)c2sc(N3C(=O)/C(=C/c4ccc(SC)cc4)N=C3c3ccccc3)nc12`, the GI50 in the assay on 786-0 is 43.3 µM (inactive); in the assay on NCI-H460 it was 28.6 µM (inactive); with SW-620 it was 27.4 µM (inactive); in the assay with PC-3 it was 21.7 µM (inactive); in the assay with COLO 205 it was 58.5 µM (inactive); in the assay with M14, 21.2 µM (inactive). For the same molecule, the GI50 in the assay with SK-MEL-2 is 20.8 µM (inactive); in the assay on SNB-75, 18.3 µM (inactive); with A498 it was > 100 µM (inactive); in the assay with UO-31, 24.2 µM (inactive); in the assay on HCT-116, 18.7 µM (inactive); in the assay on RPMI-8226 it was 13.3 µM (inactive). Further, the GI50 in the assay with OVCAR-4 was 28.5 µM (inactive); with SK-MEL-5, 15.6 µM (inactive); in the assay with U-251 it was 17.5 µM (inactive); with SF-539, 23.8 µM (inactive); in the assay on A549, 22.2 µM (inactive); in the assay with OVCAR-5, 47.3 µM (inactive). Moreover, the GI50 is 26.4 µM (inactive) with SR and 43.1 µM with HCT-15.
Consider `CC(=O)OCC1OC(n2c(=O)[nH]c(=O)c3sccc32)C(Br)C1OC(C)=O` (stereo not given), for which the GI50 in the assay on 786-0, in the assay on NCI-H460, in the assay with SW-620, with PC-3, in the assay on COLO 205 and in the assay on M14 was > 100 µM (inactive) each time. Besides, the GI50 in the assay with SK-MEL-2, in the assay with SNB-75, in the assay on A498, in the assay on UO-31, in the assay on HCT-116 and in the assay with RPMI-8226 was > 100 µM (inactive) in each case. For the same molecule, the GI50 in the assay with OVCAR-4, in the assay on SK-MEL-5, in the assay with U-251, in the assay on SF-539, with A549 and in the assay with OVCAR-5 was > 100 µM (inactive) throughout. In addition, the GI50 in the assay with SR is > 100 µM (inactive); in the assay on HCT-15, > 100 µM.
